Data published in patent EP0851862B1, “1(HETERO)ARYL-4-(CONDENSED THIAZOL-2-YLALKYL)-PIPERAZINE DERIVATIVES, THEIR PREPARATION AND THEIR USE IN THE TREATMENT OF 5-HT1A-RECEPTOR MEDIATED DISORDERS” (Pharmacia Italia S.p.A., priority 1995, dated 1997).
Where a name gives a salt, the structure may show the parent alone.

Legend:
α1 = assay: receptor binding profile, α1; conditions: read-out: α1 Affinity is expressed as IC50
α2 = assay: receptor binding profile, α2; conditions: read-out: α2 Affinity is expressed as IC50
5-HT1A receptor sites = target: T1, 5-HT1A receptor sites (Rattus norvegicus, UniProt P19327); assay: receptor binding profile, 5-HT1A; conditions: read-out: 5-HT1A Affinity is expressed as IC50
T1 sequence (P19327 1-422): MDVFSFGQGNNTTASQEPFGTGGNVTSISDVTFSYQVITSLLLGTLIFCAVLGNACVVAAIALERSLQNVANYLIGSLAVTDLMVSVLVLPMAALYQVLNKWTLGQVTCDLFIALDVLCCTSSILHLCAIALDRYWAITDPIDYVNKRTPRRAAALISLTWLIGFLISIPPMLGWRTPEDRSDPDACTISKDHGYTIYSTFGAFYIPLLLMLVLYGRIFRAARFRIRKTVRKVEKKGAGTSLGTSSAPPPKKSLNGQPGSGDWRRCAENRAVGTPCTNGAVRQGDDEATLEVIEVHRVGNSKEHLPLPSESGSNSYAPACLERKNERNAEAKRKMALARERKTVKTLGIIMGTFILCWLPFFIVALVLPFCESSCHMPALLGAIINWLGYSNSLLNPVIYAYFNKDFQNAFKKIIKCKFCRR
Description: The affinity of the compounds of the present invention towards 5-HT1A receptor sites can be assessed by evaluating the binding profile of the compounds of formula (I).

5-HT2 = 5-HT2 (Rattus norvegicus, UniProt P14842); assay: receptor binding profile, 5-HT2; conditions: read-out: 5-HT2 Affinity is expressed as IC50
D1 = D1 (Rattus norvegicus, UniProt P18901); assay: receptor binding profile, D1; conditions: read-out: D1 Affinity is expressed as IC50
D2 = D2 (Rattus norvegicus, UniProt P61169); assay: receptor binding profile, D2; conditions: read-out: D2 Affinity is expressed as IC50
Sequence of D2 (P61169 whole entry): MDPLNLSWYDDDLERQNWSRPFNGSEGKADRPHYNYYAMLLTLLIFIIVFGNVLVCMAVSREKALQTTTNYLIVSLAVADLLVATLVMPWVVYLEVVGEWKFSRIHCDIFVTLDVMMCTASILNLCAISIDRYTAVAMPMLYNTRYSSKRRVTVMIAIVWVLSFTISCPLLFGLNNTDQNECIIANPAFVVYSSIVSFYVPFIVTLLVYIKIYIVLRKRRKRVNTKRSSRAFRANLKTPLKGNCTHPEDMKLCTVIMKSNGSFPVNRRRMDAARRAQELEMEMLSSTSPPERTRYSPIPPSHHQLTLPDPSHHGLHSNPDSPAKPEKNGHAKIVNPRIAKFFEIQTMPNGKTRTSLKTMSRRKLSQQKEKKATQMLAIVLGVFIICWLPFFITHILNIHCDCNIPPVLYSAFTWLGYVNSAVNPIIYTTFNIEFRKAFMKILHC

Sequence of 5-HT2 (P14842 whole entry): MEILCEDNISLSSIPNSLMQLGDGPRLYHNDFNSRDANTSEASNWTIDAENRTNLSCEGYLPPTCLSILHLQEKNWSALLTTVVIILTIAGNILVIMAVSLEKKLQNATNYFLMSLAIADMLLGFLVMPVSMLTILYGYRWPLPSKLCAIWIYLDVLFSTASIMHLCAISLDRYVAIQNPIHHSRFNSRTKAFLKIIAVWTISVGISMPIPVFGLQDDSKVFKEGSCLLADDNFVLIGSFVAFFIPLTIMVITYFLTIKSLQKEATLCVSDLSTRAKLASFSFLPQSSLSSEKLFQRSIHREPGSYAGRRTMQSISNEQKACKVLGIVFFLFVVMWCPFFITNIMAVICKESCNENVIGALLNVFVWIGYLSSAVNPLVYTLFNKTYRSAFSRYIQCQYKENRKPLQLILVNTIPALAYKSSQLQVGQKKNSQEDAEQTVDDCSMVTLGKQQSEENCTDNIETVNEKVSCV
Sequence of D1 (P18901 whole entry): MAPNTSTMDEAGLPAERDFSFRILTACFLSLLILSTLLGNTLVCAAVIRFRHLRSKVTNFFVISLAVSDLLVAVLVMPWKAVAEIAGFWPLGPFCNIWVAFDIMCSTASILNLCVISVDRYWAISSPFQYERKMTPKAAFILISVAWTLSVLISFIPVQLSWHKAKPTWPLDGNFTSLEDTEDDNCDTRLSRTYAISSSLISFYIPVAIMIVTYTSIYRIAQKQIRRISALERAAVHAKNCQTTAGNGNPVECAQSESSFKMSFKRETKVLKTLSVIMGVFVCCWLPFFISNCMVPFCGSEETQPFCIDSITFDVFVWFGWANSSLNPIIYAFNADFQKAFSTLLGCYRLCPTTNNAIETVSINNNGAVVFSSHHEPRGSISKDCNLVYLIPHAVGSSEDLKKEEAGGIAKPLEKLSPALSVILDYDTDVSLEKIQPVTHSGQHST

Molecule	IC50 (α1)	IC50 (α2)	IC50 (5-HT1A receptor sites)	IC50 (5-HT2)	IC50 (D1)	IC50 (D2)
c1ccc(N2CCN(CCc3nc4c(s3)CCc3ccccc3-4)CC2)cc1 [(3)]	110 nM	160 nM	170 nM	63 nM		
c1ccc(N2CCN(Cc3nc4c(s3)CCc3ccccc3-4)CC2)cc1 [(2), 2-[(4-phenyl-piperazin-1-yl)-methyl]-4,5 dihydronaphtho[1,2-d]thiazole hydrocloride]	130 nM	300 nM	42 nM	300 nM		
7-Methoxy-2-{4-[4-(2-pyridyl)-piperazin-1-yl]-butyl}-4,5-dihydro-naphtho[1,2-d]thiazole hydrochloride [(9)]	58 nM	20 nM	4.1 nM	55 nM	430 nM	11 nM
5-Methoxy-2-{4-[4-(2-pyridyl)-piperazin-1-yl]-butyl}-4,5-dihydro-naphtho[1,2-d]thiazole hydrochloride [(12)]	190 nM	390 nM	8.2 nM	82 nM	1490 nM	61 nM
6-Methoxy-2-{4-(4-(2-methoxy-phenyl)-piperazin-1-yl]-butyl}-4,5-dihydro-naphtho[1,2-d]thiazole hydrochloride [(1)]	52 nM	92 nM	3.2 nM	250 nM	590 nM	20 nM
c1ccc(N2CCN(CCCc3nc4c(s3)CCc3ccccc3-4)CC2)cc1 [(4), 2-[3-(4-phenyl-piperazin-1-yl)-propyl]-4,5-dihydronaphtho[1,2-d]thiazole hydrocloride]	120 nM	110 nM	69 nM	280 nM		
5-Methoxy-2-{4-[4-(2-methoxy-phenyl)-piperazin-1-yl]-butyl}-4,5-dihydro-naphtho[1,2-d]thiazole hydrochloride [(13)]	35 nM	46 nM	3.7 nM	240 nM		8 nM
7-Methoxy-2-[4-(4-phenyl-piperazin-1-yl)-butyl]-4,5-dihydro-naphtho[1,2-d]thiazole hydrochloride [(7)]	49 nM	500 nM	12 nM	870 nM	1180 nM	25 nM
5-Methoxy-2-[4-(4-phenyl-piperazin-1-yl)-butyl]-4,5-dihydro-naphtho[1,2-d]thiazole hydrochloride [(11)]	52 nM	18 nM	10 nM	66 nM	1770 nM	24 nM
6-Methoxy-2-[4-(4-phenyl-piperazin-1-yl)-butyl]-4,5-dihydro-naphtho[1,2-d]thiazole hydrochloride [(10)]	1140 nM	3770 nM	400 nM	3180 nM	> 10000 nM	680 nM
7-Methoxy-2-{4-[4-(2-methoxy-phenyl)-piperazin-1-yl]-butyl}-4,5-dihydro-naphtho[1,2-d]thiazole hydrochloride [(8)]	200 nM	380 nM	7 nM	720 nM	1610 nM	150 nM
COc1ccc2c(c1)CCc1sc(CCCN3CCN(c4ccccc4OC)CC3)nc1-2 [(6), 7-Methoxy-2-{3-[4-(2-methoxy-phenyl) -piperazin-1-yl]-propyl}-4,5-dihydro-naphtho[1,2-d]thiazole hydrochloride]	90 nM	160 nM				
c1ccc(N2CCN(CCCCc3nc4c(s3)CCc3ccccc3-4)CC2)cc1 [(5), 2-[4-(4-phenyl-piperazin-1-yl)-butyl]-4,5-dihydronaphtho[1,2-d]thiazole hydrocloride]	170 nM	260 nM	67 nM	66 nM		
